According to US12486489B2, “Culture medium for testing drug resistance of H.pylori as well as preparation method and use thereof” (priority 2022, dated 2025):

How the values were obtained:
[1] = test system: H. pylori; test: Effects of NiCl2 on H. pylori on culture medium (50 mL Colombian culture medium with 80 mg urea and 0.4 mg phenol red); assay type: cell-based, Helicobacter pylori; parameters: key to bacteria growth and discoloration: +: refers to a good bacteria growth after 36 hours of culture, with a discoloration; ++: refers to a good bacteria growth after 36 hours of culture, with an obvious discoloration; details: for bacteria growth and discoloration: 36 hours of culture
[2] = test system: H. pylori; test: Effects of urea and phenol red on H. pylori on Columbia culture medium; assay type: cell-based, Helicobacter pylori; details: for bacterial growth: 1 × 10^6 CFU/mL; for effect on the growth of H. pylori: strains G27 and 287, 72 hours

[Cl][Ni][Cl] [NiCl2, nickel chloride]
recognition of the discoloration reaction ([1]; NiCl2 100 μmol/L): has reached its maximum | sensitivity and identification of the discoloration reaction ([1]; NiCl2 1 μMol/L to 200 μMol/L, 80 mg urea, 0.4 mg phenol red, pH 7.15 to 7.35): the sensitivity and identification of the discoloration reaction are further improved | bacteria growth and discoloration ([1]; strain 159, NiCl2 1 μmol/L): + | bacteria growth and discoloration ([1]; strain 159, NiCl2 10 μmol/L): + | bacteria growth and discoloration ([1]; strain 159, NiCl2 100 μmol/L): ++ | bacteria growth and discoloration ([1]; strain 161, NiCl2 1 μmol/L): + | bacteria growth and discoloration ([1]; strain 161, NiCl2 10 μmol/L): + | bacteria growth and discoloration ([1]; strain 161, NiCl2 100 μmol/L): ++ | bacteria growth and discoloration ([1]; strain 162, NiCl2 1 μmol/L): + | bacteria growth and discoloration ([1]; strain 162, NiCl2 10 μmol/L): + | bacteria growth and discoloration ([1]; strain 162, NiCl2 100 μmol/L): ++ | bacteria growth and discoloration ([1]; strain 163, NiCl2 1 μmol/L): + | bacteria growth and discoloration ([1]; strain 163, NiCl2 10 μmol/L): + | bacteria growth and discoloration ([1]; strain 163, NiCl2 100 μmol/L): ++ | bacteria growth and discoloration ([1]; strain 286, NiCl2 1 μmol/L): + | bacteria growth and discoloration ([1]; strain 286, NiCl2 10 μmol/L): + | bacteria growth and discoloration ([1]; strain 286, NiCl2 100 μmol/L): ++ | bacteria growth and discoloration ([1]; strain 287, NiCl2 1 μmol/L): + | bacteria growth and discoloration ([1]; strain 287, NiCl2 10 μmol/L): + | bacteria growth and discoloration ([1]; strain 287, NiCl2 100 μmol/L): ++ | bacteria growth and discoloration ([1]; strain 289, NiCl2 1 μmol/L): + | bacteria growth and discoloration ([1]; strain 289, NiCl2 10 μmol/L): + | bacteria growth and discoloration ([1]; strain 289, NiCl2 100 μmol/L): ++ | bacteria growth and discoloration ([1]; strain 290, NiCl2 1 μmol/L): + | bacteria growth and discoloration ([1]; strain 290, NiCl2 10 μmol/L): + | bacteria growth and discoloration ([1]; strain 290, NiCl2 100 μmol/L): ++ | bacteria growth and discoloration ([1]; strain 26695, NiCl2 1 μmol/L): + | bacteria growth and discoloration ([1]; strain 26695, NiCl2 10 μmol/L): + | bacteria growth and discoloration ([1]; strain 26695, NiCl2 100 μmol/L): ++ | bacteria growth and discoloration ([1]; strain G27, NiCl2 1 μmol/L): + | bacteria growth and discoloration ([1]; strain G27, NiCl2 10 μmol/L): + | bacteria growth and discoloration ([1]; strain G27, NiCl2 100 μmol/L): ++

NC(N)=O [Urea, urea]
maximum value of added urea without affecting the growth of H. pylori ([2]; in 50 mL Colombian culture medium): 80 mg | bacterial growth ([2]; strain 159, urea 60 mg): ++ | bacterial growth ([2]; strain 159, urea 80 mg): ++ | bacterial growth ([2]; strain 159, urea 100 mg): + | bacterial growth ([2]; strain 159, urea 120 mg): + | bacterial growth ([2]; strain 159, urea 240 mg): − | bacterial growth ([2]; strain 161, urea 60 mg): ++ | bacterial growth ([2]; strain 161, urea 80 mg): ++ | bacterial growth ([2]; strain 161, urea 100 mg): + | bacterial growth ([2]; strain 161, urea 120 mg): + | bacterial growth ([2]; strain 161, urea 240 mg): − | bacterial growth ([2]; strain 162, urea 60 mg): ++ | bacterial growth ([2]; strain 162, urea 80 mg): ++ | bacterial growth ([2]; strain 162, urea 100 mg): + | bacterial growth ([2]; strain 162, urea 120 mg): + | bacterial growth ([2]; strain 162, urea 240 mg): − | bacterial growth ([2]; strain 163, urea 60 mg): ++ | bacterial growth ([2]; strain 163, urea 80 mg): ++ | bacterial growth ([2]; strain 163, urea 100 mg): + | bacterial growth ([2]; strain 163, urea 120 mg): + | bacterial growth ([2]; strain 163, urea 240 mg): − | bacterial growth ([2]; strain 286, urea 60 mg): ++ | bacterial growth ([2]; strain 286, urea 80 mg): ++ | bacterial growth ([2]; strain 286, urea 100 mg): + | bacterial growth ([2]; strain 286, urea 120 mg): + | bacterial growth ([2]; strain 286, urea 240 mg): − | bacterial growth ([2]; strain 287, urea 60 mg): ++ | bacterial growth ([2]; strain 287, urea 80 mg): ++ | bacterial growth ([2]; strain 287, urea 100 mg): + | bacterial growth ([2]; strain 287, urea 120 mg): + | bacterial growth ([2]; strain 287, urea 240 mg): − | bacterial growth ([2]; strain 289, urea 60 mg): ++ | bacterial growth ([2]; strain 289, urea 80 mg): ++ | bacterial growth ([2]; strain 289, urea 100 mg): + | bacterial growth ([2]; strain 289, urea 120 mg): + | bacterial growth ([2]; strain 289, urea 240 mg): − | bacterial growth ([2]; strain 290, urea 60 mg): ++ | bacterial growth ([2]; strain 290, urea 80 mg): ++ | bacterial growth ([2]; strain 290, urea 100 mg): + | bacterial growth ([2]; strain 290, urea 120 mg): + | bacterial growth ([2]; strain 290, urea 240 mg): − | bacterial growth ([2]; strain 26695, urea 60 mg): ++ | bacterial growth ([2]; strain 26695, urea 80 mg): ++ | bacterial growth ([2]; strain 26695, urea 100 mg): + | bacterial growth ([2]; strain 26695, urea 120 mg): + | bacterial growth ([2]; strain 26695, urea 240 mg): − | bacterial growth ([2]; strain G27, urea 60 mg): ++ | bacterial growth ([2]; strain G27, urea 80 mg): ++ | bacterial growth ([2]; strain G27, urea 100 mg): + | bacterial growth ([2]; strain G27, urea 120 mg): + | bacterial growth ([2]; strain G27, urea 240 mg): − | effect on the growth of H. pylori ([2]; urea 60 mg in 50 mL Colombian culture medium): no effect on the growth of H. pylori | effect on the growth of H. pylori ([2]; urea 120 mg to 240 mg in 50 mL Colombian culture medium): the growth is not good
